# Values joined by “and” are separate entries in the source; they are usually repeats but may differ in a detail not shown here. Equal entries are not always repeated.
# What was measured:
# Assay type in all cases: cell-based
# HCoV-229E = assay: Antiviral activity in vitro, viral RNA copies by qRT-PCR, HCoV-229E in Huh-7 cells; conditions: for EC50 (229E, Huh-7): inhibition at the concentration: replicates
# HCoV-OC43 [1] = assay: Antiviral activity in vitro, qRT-PCR, HCoV-OC43 in RD cells; conditions: for EC50 (OC43, RD): inhibition at the concentration: replicates
# HCoV-OC43 [2] = assay: Antiviral activity in vitro, qRT-PCR, HCoV-OC43 in Huh-7 cells; conditions: for HCoV-OC43, Huh-7: inhibition at the concentration (Fig2B): replicates
# HCoV-OC43 [3] = assay: Time-of-addition assay; conditions: for time-of-addition, viral inhibition: replicates
# Experimental: To obtain further insight into the stage at which DBM inhibits the replication of HCoV-OC43 and other HCoVs, RD cells were incubated with compounds, including DBM, remdesivir (RDV), and chloroquine (CQ), at different stages of viral infection. Viral RNA from the supernatant was extracted and quantitatively analysed via qRT-PCR. […] For the viral binding assay, cells were cultured in the presence or absence of DBM at different concentrations for 1 hour before being infected with HCoV-OC43 at an MOI of 50, and then were placed on ice for 2 hours for the viral particles to bind to the membrane of the host cells, followed by washing with PBS. […] In addition to binding to receptors from host cells, the spike proteins of HCoV-OC43 could also trigger membrane fusion when HCoV-OC43 spike plasmid-transfected 293T cells were seeded together with RD cells as target cells, and the addition of DBM had no effect on this process (S5C Fig). To examine whether DBM inhibits viral internalisation, cells were inoculated with HCoV-OC43 for 1 hour on ice before being treated with either DBM or DMSO, and CQ was included to prevent endosomal acidification. Subsequently, HCoV-OC43 nucleocapsid proteins were immunostained with CoraLite Plus 488 to assess viral internalisation via confocal microscopy. […] To determine whether DBM influences viral release, we quantified viral RNA both intracellularly and in the supernatant.
# To evaluate the effects of DBM on the life cycle of HCoV-229E and HCoV-OC43, fresh culture medium containing 0.6 μM DBM, 0.1 μM remdesivir (RDV), or 10 μM chloroquine (CQ) was supplemented with preseeded cells at different time points relative to infection (entry group: 0 to –2 hours; postinfection group: 2–12 hours; and full-time group: 0 to –12 hours). DMSO served as the control. At 24 hours postinfection, the number of intracellular virus RNA copies was quantified by qRT-PCR as previously described.
# Huh-7 cells = system: Huh-7 cells
# caspase-6 = caspase-6 (Homo sapiens, UniProt P55212); conditions: STS-treated cells
# HCoV-OC43 [4] = assay: HCoV-OC43 nucleocapsid protein and caspase-6 in infected cells (Western blot); conditions: cells pretreated with serially diluted compound
# caspase-6, sequence (P55212 194-293): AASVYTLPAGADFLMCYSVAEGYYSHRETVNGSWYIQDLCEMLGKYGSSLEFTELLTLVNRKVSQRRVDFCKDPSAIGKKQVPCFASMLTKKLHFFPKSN
# caspase-6, sequence (P55212 24-179): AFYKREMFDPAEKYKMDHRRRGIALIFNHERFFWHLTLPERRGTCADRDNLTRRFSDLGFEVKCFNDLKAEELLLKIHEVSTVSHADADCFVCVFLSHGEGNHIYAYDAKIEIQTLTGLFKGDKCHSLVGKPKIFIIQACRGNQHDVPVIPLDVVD
smiles,measurement,setting,value
"O=C(CC(=O)c1ccccc1)c1ccccc1 [DBM, dibenzoylmethane]",EC50,"HCoV-229E; Human coronavirus 229E, Huh-7, 24 h, read-out: EC50 HCoV-229E (Huh-7)",6710 nM
same,"EC50 (229E, Huh-7): inhibition at the concentration",HCoV-229E; conc. 0.1 (unit not given),60.8 and 22.3 and 20.2
same,"EC50 (229E, Huh-7): inhibition at the concentration",HCoV-229E; conc. 0.2 (unit not given),25.5 and 35.2
same,"EC50 (229E, Huh-7): inhibition at the concentration",HCoV-229E; conc. 0.7 (unit not given),37.7 and 44.1
same,"EC50 (229E, Huh-7): inhibition at the concentration",HCoV-229E; conc. 2.2 (unit not given),13.1 and 6.1 and 18.7
same,"EC50 (229E, Huh-7): inhibition at the concentration",HCoV-229E; conc. 6.7 (unit not given),65 and 69.4 and 38.7
same,"EC50 (229E, Huh-7): inhibition at the concentration",HCoV-229E; conc. 20 (unit not given),91.1 and 94.4 and 99.5
same,EC50,"HCoV-OC43 [1]; Betacoronavirus 1, OC43, RD, 24 h, read-out: EC50 HCoV-OC43 (RD)",350 nM
same,Viral RNA copies (Fig6B),"HCoV-OC43 [1]; OC43, concentration 4",7.43E+03 and 9.55E+03 and 9.54E+03
same,Viral RNA copies (Fig6B),"HCoV-OC43 [1]; OC43, concentration 20",3.88E+03 and 6.38E+03 and 7.34E+03
same,"EC50 (OC43, RD): inhibition at the concentration",HCoV-OC43 [1]; conc. 0.1 (unit not given),-75.5 and -76.6 and -100.8
same,"EC50 (OC43, RD): inhibition at the concentration",HCoV-OC43 [1]; conc. 0.2 (unit not given),23.1 and 21.4 and 22.1
same,"EC50 (OC43, RD): inhibition at the concentration",HCoV-OC43 [1]; conc. 0.7 (unit not given),88.5 and 91.5 and 92
same,"EC50 (OC43, RD): inhibition at the concentration",HCoV-OC43 [1]; conc. 2.2 (unit not given),99.6
same,"EC50 (OC43, RD): inhibition at the concentration",HCoV-OC43 [1]; conc. 6.7 (unit not given),99.9
same,"EC50 (OC43, RD): inhibition at the concentration",HCoV-OC43 [1]; conc. 20 (unit not given),99.8
same,EC50,"HCoV-OC43 [2]; Betacoronavirus 1, OC43, Huh-7, 24 h, read-out: EC50 HCoV-OC43 (Huh-7)",90 nM
same,"HCoV-OC43, Huh-7: inhibition at the concentration (Fig2B)",HCoV-OC43 [2]; conc. 0.1 (unit not given),51.3 and 53.7 and 47.2
same,"HCoV-OC43, Huh-7: inhibition at the concentration (Fig2B)",HCoV-OC43 [2]; conc. 0.2 (unit not given),64.6 and 65.3 and 60.0
same,"HCoV-OC43, Huh-7: inhibition at the concentration (Fig2B)",HCoV-OC43 [2]; conc. 0.7 (unit not given),95.4 and 95.1 and 94.4
same,"HCoV-OC43, Huh-7: inhibition at the concentration (Fig2B)",HCoV-OC43 [2]; conc. 2.2 (unit not given),98.2 (2×) and 98.0
same,"HCoV-OC43, Huh-7: inhibition at the concentration (Fig2B)",HCoV-OC43 [2]; conc. 6.7 (unit not given),98.4
same,"HCoV-OC43, Huh-7: inhibition at the concentration (Fig2B)",HCoV-OC43 [2]; conc. 20.0 (unit not given),98.3 (2×) and 98.5
same,"time-of-addition, viral inhibition",HCoV-OC43 [3]; Entry,44.1 and 45.1 and 75.5
same,"time-of-addition, viral inhibition",HCoV-OC43 [3]; Full-Time,98.8 and 98.7 (2×)
same,"time-of-addition, viral inhibition",HCoV-OC43 [3]; Post-Entry,79.3 and 93.6 and 93.3
same,"HCoV-OC43 infection, compound incubated before and during virus infection","HCoV-OC43 [3]; RD cells, 0.6 μM DBM",did not significantly inhibit
same,"replication of HCoV-OC43, compound added 2 hours after virus inoculation","HCoV-OC43 [3]; RD cells, 0.6 μM DBM",potently inhibited
same,treated/untreated,Huh-7 cells,1.279 and 1.276 and 1.31 and 1.204 and 1.484
same,levels of cleaved HCoV-OC43 and SARS-CoV-2 nucleocapsid proteins,caspase-6,significantly reduces
same,"virus replication (nucleocapsid protein, Western blot)",HCoV-OC43 [4],inhibited virus replication

# Reference: publication PMC12431657, “Discovery and mechanistic insights of dibenzoylmethane as a broad spectrum inhibitor of coronavirus” (PLOS Pathogens, 2025)
